Laboratory results published in patent US20230096766A1, “AMINO ACID HAVING FUNCTIONAL GROUP CAPABLE OF INTERMOLECULAR HYDROGEN BONDING, PEPTIDE COMPOUND CONTAINING SAME AND METHOD FOR PRODUCTION THEREOF” (Chugai Seiyaku Kabushiki Kaisha, priority 2018, published 2023).
*1 amine or outer side, *2 acyl side, *3 side chain or, on linkers, in order; H or OH if unused. Where a SMILES comes first, the peptide text is derived from it. Bridges are numbered along the chain shown (N, C = ends). [ ]: non-standard residue; d: D form. The star is where a group is joined. ξ: configuration not given here. NMePhe(3-Cl) = CN[C@@H](Cc1cccc(Cl)c1)C(=O)O; NMehPhe = CN[C@@H](CCc1ccccc1)C(=O)O; NMeF = CN[C@@H](Cc1ccccc1)C(=O)O; NMeGABA = CN(CCCC(=O)[*:2])[*:1]; NMeI = CC[C@H](C)[C@H](NC)C(=O)O; Butyl(3-Me,3-OH) = CC(C)(O)CC*; NMeL = CN[C@@H](CC(C)C)C(=O)O; NMeV = CN[C@H](C(=O)O)C(C)C; ξIle = CC[C@H](C)C(N)C(=O)O; NMeA = CN[C@@H](C)C(=O)O; Piperidide = C1CCN(*)CC1; Isopentyl = CC(C)CC*; NPrGly = CCCNCC(=O)O; X3 = C[C@H](O)C*; Sar = CNCC(=O)O; tBu = CC(C)(C)*

Experiment: in vitro
Conditions: human, Caco-2, Caco-2 (cm/sec)
CC(C)CCOC[C@@H]1NC(=O)[C@H](CC(C)C)N(C)C(=O)CN(C)C(=O)[C@H]([C@@H](C)O)NC(=O)[C@H](CC(C)C)N(C)C(=O)[C@H](COCCC(C)(C)O)NC(=O)[C@H](Cc2ccccc2)N(C)C(=O)[C@@H](C(C)C)NC(=O)C[C@@H](C(=O)N2CCCCC2)NC(=O)[C@H](CC(C)C)N(C)C(=O)[C@H](Cc2ccccc2)N(C)C1=O [AP51] ([dV][NMeF]S(Butyl(3-Me,3-OH))[NMeL]T[Sar][NMeL]S(Isopentyl)[NMeF][NMeL]D-Piperidide; lactam N-11) gave a Papp of 1.4 ×10⁻⁶ cm/s. Compound CC(C)C[C@@H]1NC(=O)[C@H](Cc2ccccc2)N(C)C(=O)[C@@H](C(C)C)NC(=O)C[C@@H](C(=O)N2CCCCC2)NC(=O)[C@H](CC(C)C)N(C)C(=O)[C@H](Cc2cccc(Cl)c2)N(C)C(=O)[C@H](COCCC(C)(C)O)NC(=O)[C@H](CC(C)C)N(C)C(=O)CN(C)C(=O)[C@H]([C@@H](C)O)NC(=O)[C@H](C(C)C)N(C)C1=O [AP52] ([dV][NMeF]L[NMeV]T[Sar][NMeL]S(Butyl(3-Me,3-OH))[NMePhe(3-Cl)][NMeL]D-Piperidide; lactam N-11) has a Papp of 1.7 ×10⁻⁶ cm/s. In the case of CC(C)CCOC[C@@H]1NC(=O)[C@H](Cc2ccccc2)N(C)C(=O)[C@H](Cc2ccccc2)N(C)C(=O)[C@H](COCCC(C)(C)O)NC(=O)[C@H](CC(C)C)N(C)C(=O)CCCN(C)C(=O)C[C@@H](C(=O)N2CCCCC2)NC(=O)[C@H](CC(C)C)N(C)C(=O)[C@H](CC(C)C)N(C)C(=O)[C@H]([C@@H](C)O)NC(=O)[C@H](C(C)C)N(C)C1=O [AP53] ([NMeGABA][NMeL]S(Butyl(3-Me,3-OH))[NMeF][NMeF]S(Isopentyl)[NMeV]T[NMeL][NMeL]D-Piperidide; lactam N-11), the Papp is reported as 0.74 ×10⁻⁶ cm/s. With CC[C@H](C)[C@@H]1NC(=O)[C@H](C(C)C)N(C)C(=O)CCCN(C)C(=O)C[C@@H](C(=O)N2CCCCC2)NC(=O)[C@H](CC(C)C)N(C)C(=O)[C@H](CC(C)C)N(C)C(=O)[C@H]([C@@H](C)O)NC(=O)[C@H](CC(C)C)N(C)C(=O)[C@H](COCCC(C)(C)O)NC(=O)[C@H](Cc2cccc(Cl)c2)N(C)C(=O)[C@H](Cc2ccccc2)N(C)C1=O [AP54] ([NMeGABA][NMeV]I[NMeF][NMePhe(3-Cl)]S(Butyl(3-Me,3-OH))[NMeL]T[NMeL][NMeL]D-Piperidide; lactam N-11) the Papp was 1.4 ×10⁻⁶ cm/s. Compound CC(C)C[C@@H]1NC(=O)[C@H](Cc2ccccc2)N(C)C(=O)[C@H](CC(C)C)N(C)C(=O)[C@H](COCCC(C)(C)O)NC(=O)[C@H](C)N(C)C(=O)C[C@@H](C(=O)N2CCCCC2)NC(=O)[C@H](CC(C)C)N(C)C(=O)CN(C)C(=O)[C@H]([C@@H](C)O)NC(=O)[C@H](CC(C)C)N(C)C(=O)[C@H](CCc2ccccc2)N(C)C1=O [AP55] ([NMeA]S(Butyl(3-Me,3-OH))[NMeL][NMeF]L[NMehPhe][NMeL]T[Sar][NMeL]D-Piperidide; lactam N-11) has a Papp of 1.3 ×10⁻⁶ cm/s. Work on CC(C)C[C@@H]1NC(=O)[C@H](C)N(C)C(=O)C[C@@H](C(=O)N2CCCCC2)NC(=O)[C@H](CC(C)C)N(C)C(=O)CN(C)C(=O)[C@H]([C@@H](C)O)NC(=O)[C@H](CC(C)C)N(C)C(=O)[C@H](CCc2ccccc2)N(C)C(=O)[C@H](COCCC(C)(C)O)NC(=O)[C@H](Cc2ccccc2)N(C)C(=O)[C@H](CC(C)C)N(C)C1=O [AP56] ([NMeA]L[NMeL][NMeF]S(Butyl(3-Me,3-OH))[NMehPhe][NMeL]T[Sar][NMeL]D-Piperidide; lactam N-11) yielded a Papp of 1.3 ×10⁻⁶ cm/s. CC(C)C[C@H]1C(=O)N[C@@H]([C@@H](C)O)C(=O)N(C)CC(=O)N(C)[C@@H](Cc2cccc(Cl)c2)C(=O)N(C)[C@@H](CC(C)C)C(=O)N[C@@H](COC(C)(C)C)C(=O)N(C)[C@@H](CC(C)C)C(=O)N[C@H](C(=O)N2CCCCC2)CC(=O)N(C)CC(=O)N(C)[C@@H](CCc2ccccc2)C(=O)N[C@@H](COCCC(C)(C)O)C(=O)N1C [AP57] ([Sar][NMehPhe]S(Butyl(3-Me,3-OH))[NMeL]T[Sar][NMePhe(3-Cl)][NMeL]S(tBu)[NMeL]D-Piperidide; lactam N-11) showed a Papp of 0.83 ×10⁻⁶ cm/s. CC[C@H](C)[C@@H]1NC(=O)[C@H](Cc2ccccc2)N(C)C(=O)CN(C)C(=O)C[C@@H](C(=O)N2CCCCC2)NC(=O)[C@H](CC(C)C)N(C)C(=O)[C@H](COCCC(C)(C)O)NC(=O)[C@H](CC(C)C)N(C)C(=O)[C@H](CCc2ccccc2)N(C)C(=O)CN(C)C(=O)[C@H]([C@@H](C)O)NC(=O)[C@H](CC(C)C)N(C)C1=O [AP58] ([Sar][NMeF]I[NMeL]T[Sar][NMehPhe][NMeL]S(Butyl(3-Me,3-OH))[NMeL]D-Piperidide; lactam N-11) gave a Papp of 0.49 ×10⁻⁶ cm/s. CCCN1CC(=O)N(C)[C@@H](Cc2ccccc2)C(=O)N[C@@H]([C@@H](C)CC)C(=O)N(C)[C@@H](CC(C)C)C(=O)N[C@@H]([C@@H](C)O)C(=O)N(C)CC(=O)N(C)[C@@H](Cc2ccccc2)C(=O)N(C)[C@@H](CC(C)C)C(=O)N[C@@H](COCCC(C)(C)O)C(=O)N(C)[C@@H](CC(C)C)C(=O)N[C@H](C(=O)N2CCCCC2)CC1=O [AP59] ([NPrGly][NMeF]I[NMeL]T[Sar][NMeF][NMeL]S(Butyl(3-Me,3-OH))[NMeL]D-Piperidide; lactam N-11) showed a Papp of 0.78 ×10⁻⁶ cm/s. In the case of CC(C)C[C@@H]1NC(=O)[C@H](CCc2ccccc2)N(C)C(=O)[C@@H](C(C)C)NC(=O)C[C@@H](C(=O)N2CCCCC2)NC(=O)[C@H](CC(C)C)N(C)C(=O)[C@H](Cc2ccccc2)N(C)C(=O)[C@H](COCCC(C)(C)O)NC(=O)[C@H](CC(C)C)N(C)C(=O)CN(C)C(=O)[C@H]([C@@H](C)O)NC(=O)[C@H](CC(C)C)N(C)C1=O [AP60] ([dV][NMehPhe]L[NMeL]T[Sar][NMeL]S(Butyl(3-Me,3-OH))[NMeF][NMeL]D-Piperidide; lactam N-11), the Papp is reported as 1 ×10⁻⁶ cm/s. CCCN1CC(=O)N(C)[C@@H](CC(C)C)C(=O)N[C@@H](COCCC(C)C)C(=O)N(C)[C@@H](Cc2ccccc2)C(=O)N(C)[C@@H](CC(C)C)C(=O)N[C@H](C(=O)N2CCCCC2)CC(=O)N[C@H](C(C)C)C(=O)N(C)[C@@H](Cc2ccccc2)C(=O)N[C@@H](COC[C@H](C)O)C(=O)N(C)[C@@H](CC(C)C)C(=O)N[C@@H]([C@@H](C)O)C1=O [AP61] ([dV][NMeF]S(X3)[NMeL]T[NPrGly][NMeL]S(Isopentyl)[NMeF][NMeL]D-Piperidide; lactam N-11) gave a Papp of 0.51 ×10⁻⁶ cm/s. For CC(C)CCOC[C@@H]1NC(=O)[C@H](Cc2cccc(Cl)c2)N(C)C(=O)[C@H](Cc2ccccc2)N(C)C(=O)[C@H](COC[C@H](C)O)NC(=O)[C@H](CC(C)C)N(C)C(=O)CCCN(C)C(=O)C[C@@H](C(=O)N2CCCCC2)NC(=O)[C@H](CC(C)C)N(C)C(=O)[C@H](CC(C)C)N(C)C(=O)[C@H]([C@@H](C)O)NC(=O)[C@H](CC(C)C)N(C)C1=O [AP63] ([NMeGABA][NMeL]S(X3)[NMeF][NMePhe(3-Cl)]S(Isopentyl)[NMeL]T[NMeL][NMeL]D-Piperidide; lactam N-11), the Papp was 0.14 ×10⁻⁶ cm/s. Work on CC[C@H](C)[C@@H]1NC(=O)[C@H](CC(C)C)N(C)C(=O)CCCN(C)C(=O)C[C@@H](C(=O)N2CCCCC2)NC(=O)[C@H](CC(C)C)N(C)C(=O)[C@H](CC(C)C)N(C)C(=O)[C@H]([C@@H](C)O)NC(=O)[C@H](CC(C)C)N(C)C(=O)[C@H](COC[C@H](C)O)NC(=O)[C@H](Cc2cccc(Cl)c2)N(C)C(=O)[C@H](Cc2ccccc2)N(C)C1=O [AP64] ([NMeGABA][NMeL]I[NMeF][NMePhe(3-Cl)]S(X3)[NMeL]T[NMeL][NMeL]D-Piperidide; lactam N-11) yielded a Papp of 0.35 ×10⁻⁶ cm/s. Work on CCCN1CC(=O)N(C)[C@@H](CC(C)C)C(=O)N[C@H](C(=O)N2CCCCC2)CC(=O)N(C)[C@@H](C)C(=O)N[C@@H](COC[C@H](C)O)C(=O)N(C)[C@@H](CC(C)C)C(=O)N(C)[C@@H](Cc2cccc(Cl)c2)C(=O)N[C@@H](CC(C)C)C(=O)N(C)[C@@H](Cc2ccccc2)C(=O)N(C)[C@@H]([C@@H](C)CC)C(=O)N[C@@H]([C@@H](C)O)C1=O [AP65] ([NMeA]S(X3)[NMeL][NMePhe(3-Cl)]L[NMeF][NMeI]T[NPrGly][NMeL]D-Piperidide; lactam N-11) yielded a Papp of 1.2 ×10⁻⁶ cm/s. In the case of CC[C@H](C)[C@H]1C(=O)N[C@@H]([C@@H](C)O)C(=O)N(C)CC(=O)N(C)[C@@H](CC(C)C)C(=O)N[C@H](C(=O)N2CCCCC2)CC(=O)N(C)[C@@H](C(C)C)C(=O)N[C@@H](CC(C)C)C(=O)N(C)[C@@H](CC(C)C)C(=O)N(C)[C@@H](Cc2ccccc2)C(=O)N[C@@H](COC[C@H](C)O)C(=O)N(C)[C@@H](Cc2ccccc2)C(=O)N1C [AP66] ([NMeV]L[NMeL][NMeF]S(X3)[NMeF][NMeI]T[Sar][NMeL]D-Piperidide; lactam N-11), the Papp is reported as 0.68 ×10⁻⁶ cm/s. For CCCN1CC(=O)N(C)[C@@H](Cc2ccccc2)C(=O)N(C)[C@@H](CC(C)C)C(=O)N[C@@H](COCCC(C)C)C(=O)N(C)[C@@H](CC(C)C)C(=O)N[C@H](C(=O)N2CCCCC2)CC(=O)N(C)CC(=O)N(C)[C@@H](Cc2cccc(Cl)c2)C(=O)N[C@@H](COC[C@H](C)O)C(=O)N(C)[C@@H](CC(C)C)C(=O)N[C@@H]([C@@H](C)O)C1=O [AP67] ([Sar][NMePhe(3-Cl)]S(X3)[NMeL]T[NPrGly][NMeF][NMeL]S(Isopentyl)[NMeL]D-Piperidide; lactam N-11), the Papp was 0.71 ×10⁻⁶ cm/s. For CCCN1CC(=O)N(C)[C@@H](Cc2cccc(Cl)c2)C(=O)N(C)[C@@H](CC(C)C)C(=O)N[C@@H](COC[C@H](C)O)C(=O)N(C)[C@@H](CC(C)C)C(=O)N[C@H](C(=O)N2CCCCC2)CC(=O)N(C)CC(=O)N(C)[C@@H](Cc2ccccc2)C(=O)NC([C@@H](C)CC)C(=O)N(C)[C@@H](CC(C)C)C(=O)N[C@@H]([C@@H](C)O)C1=O (stereo partly drawn) [AP68] ([Sar][NMeF][ξIle][NMeL]T[NPrGly][NMePhe(3-Cl)][NMeL]S(X3)[NMeL]D-Piperidide; lactam N-11), the Papp was 0.24 ×10⁻⁶ cm/s. In the case of CC[C@H](C)[C@H]1C(=O)N[C@@H]([C@@H](C)O)C(=O)N(C)CC(=O)N(C)[C@@H](CC(C)C)C(=O)N[C@H](C(=O)N2CCCCC2)CC(=O)N(C)[C@@H](C(C)C)C(=O)N[C@@H](COC[C@H](C)O)C(=O)N(C)[C@@H](CC(C)C)C(=O)N(C)[C@@H](Cc2cccc(Cl)c2)C(=O)N[C@@H](CC(C)C)C(=O)N(C)[C@@H](Cc2ccccc2)C(=O)N1C [AP69] ([NMeV]S(X3)[NMeL][NMePhe(3-Cl)]L[NMeF][NMeI]T[Sar][NMeL]D-Piperidide; lactam N-11), the Papp is reported as 0.7 ×10⁻⁶ cm/s.
